# Positions of bridges follow the written chain, without caps; N, C: chain ends. Residues, ends and D or L forms follow the SMILES beside them.
# What was measured:
# [1] = tested on: GPR68; assay: β-arrestin recruitment (Tango); format: cell-based, human
# Experimental: The peptide library was additionally screened against 120 GPCR targets in parallel, including all available orphan receptors and 27 known class A peptide receptors using the Tango assay platform ([Kroeze et al., 2015]). Briefly, HTLA cells (a HEK293 cell line stably expressing a tTA-dependent luciferase reporter and a β-arrestin2-TEV fusion gene) were plated 10,000 cells/well in poly-L-lysine–coated clear-bottom white 384-well plates in DMEM supplemented with 10% FBS, 100 U/ml penicillin and 100 μg/ml streptomycin, 2 μg/ml puromycin and 100 μg/ml hygromycin B. 24 hr later, cells were transfected with Tango GPCR constructs using the calcium phosphate method ([Jordan et al., 1996]). The next day, culture medium was changed to DMEM + 1% dFBS and 10 μM peptides were added for overnight stimulation. Bright-Glo solution (Promega) was incubated for 15–20 min at room temperature, and luminescence was counted using a Trilux luminescence counter (Wallac).
# For subsequent peptide validation experiments using Tango assays, HTLA cells were transiently transfected in 10 cm dishes with the receptor of interest using polyethylenimine (PEI) ([Longo et al., 2013]). […] Assays were performed as described above, with luminescence measured using an EnSpire 2300 Multimode plate reader (PerkinElmer). Luminescence counts were exported into Excel and were analyzed using GraphPad Prism 7.
# [2] = molecular target: GPR68 (Homo sapiens, UniProt Q15743); assay: Dynamic mass redistribution (DMR), concentration-response; format: cell-based; parameters: hIL-2Ra signal peptide (N); expressed in transfected cells; details: GPR68, mean, SEM and n; for EC50: read-out: pEC50, DMR (AUC) (converted)
# Outline: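 Doxycycline-induced (0.1 μg/ml) SNAP-tagged receptors in TREx 293 cells, equilibrated 90 min at 22°C in HEPES-buffered HBSS, pH 7.4, with 0.1% DMSO. Peptide-evoked optical wavelength shift recorded for 60 min at 22°C, buffer/solvent corrected and quantified as area under the curve. Mean ± SEM of at least 3 independent experiments.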
# Sequence of GPR68 (Homo sapiens, UniProt Q15743) (Q15743 2-365 limits assumed): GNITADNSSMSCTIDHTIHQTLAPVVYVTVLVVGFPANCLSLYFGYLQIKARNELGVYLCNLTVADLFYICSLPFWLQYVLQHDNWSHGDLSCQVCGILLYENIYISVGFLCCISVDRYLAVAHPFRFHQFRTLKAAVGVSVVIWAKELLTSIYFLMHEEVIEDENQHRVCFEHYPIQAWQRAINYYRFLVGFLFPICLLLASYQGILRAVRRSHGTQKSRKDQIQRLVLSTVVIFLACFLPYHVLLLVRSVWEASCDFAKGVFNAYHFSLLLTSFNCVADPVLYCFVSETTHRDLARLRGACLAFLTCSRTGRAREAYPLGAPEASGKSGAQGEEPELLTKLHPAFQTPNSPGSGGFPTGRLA
smiles,measurement,setting,value
CC[C@H](C)[C@H](NC(=O)[C@H](CCCNC(=N)N)NC(=O)[C@H](C)NC(=O)CNC(=O)[C@H](CCCCN)NC(=O)[C@H](CCCNC(=N)N)NC(=O)[C@@H](NC(=O)[C@H](C)NC(=O)[C@@H]1CSSC[C@H](NC(=O)[C@H](CCSC)NC(=O)[C@@H]2CCCN2C(=O)[C@@H](NC(=O)[C@H](CCC(N)=O)NC(=O)CNC(=O)[C@@H](N)Cc2ccc(O)cc2)C(C)C)C(=O)N[C@@H](CC(=O)O)C(=O)N[C@@H](C)C(=O)NCC(=O)N[C@@H](CCC(=O)O)C(=O)N[C@@H](CCC(N)=O)C(=O)N1)C(C)C)C(N)=O [CART(42-89)_(9-28)] (H-YGQVPMCDAGEQCAVRKGARI-NH2; disulfide 7-13; N-terminus assumed),"Comment on response, Tango (fold over basal); Emax and pEC50 n.d.",[1],No response
same,"Emax, DMR (AUC)",[2],944453.3
same,EC50,[2],1050 nM
CC(C)C[C@H](NC(=O)[C@@H]1CCCN1C(=O)[C@H](Cc1ccccc1)NC(=O)[C@H](C)NC(=O)[C@H](CCC(=O)O)NC(=O)[C@H](C)NC(=O)[C@H](CO)NC(=O)[C@H](CCC(=O)O)NC(=O)[C@H](CC(N)=O)NC(=O)[C@H](CCC(=O)O)NC(=O)[C@H](C)NC(=O)[C@@H](NC(=O)[C@H](CC(N)=O)NC(=O)[C@@H]1CCCN1C(=O)[C@H](Cc1ccc(O)cc1)NC(=O)[C@@H](NC(=O)[C@H](CCCCN)NC(=O)[C@@H](NC(=O)[C@@H]1CCCN1C(=O)[C@H](CCCNC(=N)N)NC(=O)[C@@H](N)CCCNC(=N)N)C(C)C)C(C)C)C(C)C)C(=O)N[C@@H](CCC(=O)O)C(=O)N[C@@H](Cc1ccccc1)C(=O)O [Corticotropin_(17-40)] (H-RRPVKVYPNVAENESAEAFPLEF-OH; N-terminus and C-terminus assumed),"Comment on response, Tango (fold over basal); Emax and pEC50 n.d.",[1],No response
same,"Emax, DMR (AUC)",[2],781397.0
same,EC50,[2],1290 nM
